Measured values: ChEMBL document CHEMBL3046081, “Phytotoxic effect, uptake, and transformation of biochanin A in selected weed species” (J Agric Food Chem, 2012)

Assays:
Leaf [1] = test: Drug recovery in leaf of Secale cereale (rye) at 5 ng/g by LC-MS analysis
Leaf [2] = test: Drug recovery in leaf of Secale cereale (rye) at 50 ng/g by LC-MS analysis

Drug recovery (Leaf [1]) | Drug recovery (Leaf [2]) | Structure (SMILES)
104% | 76% | COc1ccc(C2COc3cc(O)cc(O)c3C2=O)cc1 (configuration not stated) [DIHYDROBIOCHANIN A]
98% | – | COc1ccc(-c2coc3cc(O)cc(O)c3c2=O)cc1O [PRATENSEIN]
81% | 65% | O=c1c(-c2ccc(O)cc2)coc2cc(O)cc(O)c12 [GENISTEIN]
79% | 81% | O=C(O)/C=C/c1ccc(O)cc1 [COUMARIC ACID]
